Results taken from the supplement of paper PMC8617591.

Assays:
[1] = tested on: Mycobacterium tuberculosis Erdman (autoluminescent); experiment: total FIC90 (Loewe) at 90% inhibition, three-drug combination (log2); higher = more antagonistic
Protocol: (§1)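 DiaMOND equipotent three-drug combination dose responses (10 doses, 1.5- or 2-fold spacing, centred on IC90) against autoluminescent M. tuberculosis Erdman in 8 in vitro models. Read-out is OD600, or luminescence for the intracellular and dormancy models, normalised to untreated wells. Hill-fit Einf, AUC25 and GRinf are potency metrics; FIC50 and FIC90 are total Loewe fractional inhibitory concentrations as log2 (negative = synergy).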

[2] = tested on: Mycobacterium tuberculosis Erdman (autoluminescent); experiment: GRinf, maximum normalised growth rate inhibition (three-drug combination) (unitless (-1 to 1)); higher = less effect (negative = killing)
Protocol: as §1

[3] = tested on: Mycobacterium tuberculosis Erdman (autoluminescent); experiment: Einf, fitted maximum growth inhibition of three-drug combination (fraction); higher = stronger maximal inhibition
Protocol: as §1

[4] = tested on: Mycobacterium tuberculosis Erdman (autoluminescent); experiment: total FIC50 (Loewe) at 50% inhibition, three-drug combination (log2); higher = more antagonistic
Protocol: as §1

[5] = tested on: Mycobacterium tuberculosis Erdman (autoluminescent); experiment: AUC25, normalised area under dose response up to IC25 (three-drug combination) (fraction (0-1)); higher = more potent at low dose
Protocol: as §1

[6] = in vitro model: acidic pH 5.7, time point: terminal (~4-5 doublings, model-specific)
[7] = in vitro model: butyrate, time point: terminal (~4-5 doublings, model-specific)
[8] = in vitro model: cholesterol 0.05 mM, time point: terminal (~4-5 doublings, model-specific)
[9] = in vitro model: cholesterol-high 0.2 mM, time point: terminal (~4-5 doublings, model-specific)
[10] = in vitro model: dormancy (butyrate + nitrate, low O2), time point: terminal (~4-5 doublings, model-specific)
[11] = in vitro model: intracellular J774, time point: constant = terminal
[12] = in vitro model: valerate, time point: terminal (~4-5 doublings, model-specific)
[13] = in vitro model: acidic pH 5.7, time point: constant (~7 days, model-specific)
[14] = in vitro model: butyrate, time point: constant (~7 days, model-specific)
[15] = in vitro model: cholesterol 0.05 mM, time point: constant (~7 days, model-specific)
[16] = in vitro model: cholesterol-high 0.2 mM, time point: constant (~7 days, model-specific)
[17] = in vitro model: dormancy (butyrate + nitrate, low O2), time point: constant (~7 days, model-specific)
[18] = in vitro model: standard 7H9 glycerol, time point: constant = terminal
[19] = in vitro model: valerate, time point: constant (~7 days, model-specific)

In the case of COc1nc2ccc(Br)cc2cc1[C@@H](c1ccccc1)[C@@](O)(CCN(C)C)c1cccc2ccccc12 [bedaquiline] + CC[C@@H](CO)NCCN[C@@H](CC)CO [ethambutol] + O=[N+]([O-])c1cn2c(n1)OC[C@@H](OCc1ccc(OC(F)(F)F)cc1)C2 [pretomanid], the “total FIC90” value [1, 6] is reported as 0.498, the “total FIC90” value [1, 7] is reported as -0.226 and the “total FIC90” value [1, 8] is reported as 1.26. For the same compound, the “total FIC90” value [1, 9] was 1.39, the “total FIC90” value [1, 10] was 0.645 and the “total FIC90” value [1, 11] was -1.11. The “total FIC90” value [1, 12] was 0.215, the GRinf [2, 13] was -0.482 and the GRinf [2, 6] was -0.316. The GRinf [2, 14] was -0.0548, the GRinf [2, 7] was -0.0543 and the GRinf [2, 15] was -0.351. The GRinf [2, 8] was -0.277, the GRinf [2, 16] was -0.294 and the GRinf [2, 9] was -0.825. The GRinf [2, 17] was 0.353, the GRinf [2, 10] was -0.265 and the GRinf [2, 11] was -0.203. It also gave a GRinf [2, 18] of -0.0976, a GRinf [2, 19] of -0.0325 and a GRinf [2, 12] of -0.0164. The Einf [3, 13] was 0.854, the Einf [3, 6] was 0.982 and the Einf [3, 14] was 0.925. The Einf [3, 7] was 0.966, the Einf [3, 15] was 0.781 and the Einf [3, 8] was 0.927. It also gave an Einf [3, 16] of 0.893, an Einf [3, 9] of 1 and an Einf [3, 17] of 0.894. It also gave an Einf [3, 10] of 0.997, an Einf [3, 11] of 0.938 and an Einf [3, 18] of 0.972. The Einf [3, 19] was 0.897, the Einf [3, 12] was 0.948 and the “total FIC50” value [4, 13] was 0.869. For the same compound, the “total FIC50” value [4, 6] was 0.639, the “total FIC50” value [4, 14] was 0.544 and the “total FIC50” value [4, 7] was 0.327. The “total FIC50” value [4, 15] was 0.964, the “total FIC50” value [4, 8] was 1.08 and the “total FIC50” value [4, 16] was 1.17. The “total FIC50” value [4, 9] was 1.06, the “total FIC50” value [4, 17] was 0.967 and the “total FIC50” value [4, 10] was 0.317. The “total FIC50” value [4, 18] was 0.231, the “total FIC50” value [4, 19] was -0.239 and the “total FIC50” value [4, 12] was 0.257. It also gave an AUC25 [5, 13] of 0.0902, an AUC25 [5, 6] of 0.0847 and an AUC25 [5, 14] of 0.059. It also gave an AUC25 [5, 7] of 0.0482, an AUC25 [5, 15] of 0.0996 and an AUC25 [5, 8] of 0.0849. For the same compound, the AUC25 [5, 16] was 0.0639, the AUC25 [5, 9] was 0.0509 and the AUC25 [5, 17] was 0.123. For the same compound, the AUC25 [5, 10] was 0.115, the AUC25 [5, 18] was 0.0898 and the AUC25 [5, 19] was 0.139. It also gave an AUC25 [5, 12] of 0.0867.
With COc1nc2ccc(Br)cc2cc1[C@@H](c1ccccc1)[C@@](O)(CCN(C)C)c1cccc2ccccc12 [bedaquiline] + CO[C@H]1/C=C/O[C@@]2(C)Oc3c(C)c(O)c4c(O)c(c(/C=N/N5CCN(C6CCCC6)CC5)c(O)c4c3C2=O)NC(=O)/C(C)=C\C=C\[C@H](C)[C@H](O)[C@@H](C)[C@@H](O)[C@@H](C)[C@H](OC(C)=O)[C@@H]1C [rifapentine] + CO[C@H]1/C=C/O[C@@]2(C)Oc3c(C)c(O)c4c(O)c(c(/C=N/N5CCN(C)CC5)c(O)c4c3C2=O)NC(=O)/C(C)=C\C=C\[C@H](C)[C@H](O)[C@@H](C)[C@@H](O)[C@@H](C)[C@H](OC(C)=O)[C@@H]1C [rifampicin] the “total FIC90” value [1, 6] was 0.574, the “total FIC90” value [1, 14] was -0.101 and the “total FIC90” value [1, 7] was 0.454. The “total FIC90” value [1, 8] was 0.0937, the “total FIC90” value [1, 16] was -0.0134 and the “total FIC90” value [1, 9] was 0.3. The “total FIC90” value [1, 17] was 0.723, the “total FIC90” value [1, 10] was 0.653 and the “total FIC90” value [1, 11] was 0.499. The “total FIC90” value [1, 18] was 0.35, the “total FIC90” value [1, 12] was 0.302 and the GRinf [2, 13] was -0.273. It also gave a GRinf [2, 6] of -0.265, a GRinf [2, 14] of -0.195 and a GRinf [2, 7] of -0.131. The GRinf [2, 15] was -0.233, the GRinf [2, 8] was -0.216 and the GRinf [2, 16] was -0.49. The GRinf [2, 9] was -0.604, the GRinf [2, 17] was 0.174 and the GRinf [2, 10] was -0.165. It also gave a GRinf [2, 11] of -0.129, a GRinf [2, 18] of -0.0268 and a GRinf [2, 19] of -0.0628. For the same compound, the GRinf [2, 12] was -0.0371, the Einf [3, 13] was 0.893 and the Einf [3, 6] was 0.985. It also gave an Einf [3, 14] of 0.965, an Einf [3, 7] of 0.987 and an Einf [3, 15] of 0.73. The Einf [3, 8] was 0.927, the Einf [3, 16] was 0.957 and the Einf [3, 9] was 0.998. It also gave an Einf [3, 17] of 0.905, an Einf [3, 10] of 0.982 and an Einf [3, 11] of 0.925. It also gave an Einf [3, 18] of 0.924, an Einf [3, 19] of 0.873 and an Einf [3, 12] of 0.951. For the same compound, the “total FIC50” value [4, 13] was 0.903, the “total FIC50” value [4, 6] was 0.765 and the “total FIC50” value [4, 14] was 0.199. The “total FIC50” value [4, 7] was 0.144, the “total FIC50” value [4, 15] was 0.198 and the “total FIC50” value [4, 8] was 0.249. The “total FIC50” value [4, 16] was 0.444, the “total FIC50” value [4, 9] was 0.544 and the “total FIC50” value [4, 17] was 0.141. For the same compound, the “total FIC50” value [4, 10] was 0.273, the “total FIC50” value [4, 18] was 0.258 and the “total FIC50” value [4, 19] was 0.679. For the same compound, the “total FIC50” value [4, 12] was 0.579, the AUC25 [5, 13] was 0.0935 and the AUC25 [5, 6] was 0.082. It also gave an AUC25 [5, 14] of 0.119, an AUC25 [5, 7] of 0.102 and an AUC25 [5, 15] of 0.118. For the same compound, the AUC25 [5, 8] was 0.0915, the AUC25 [5, 16] was 0.0646 and the AUC25 [5, 9] was 0.0574. For the same compound, the AUC25 [5, 17] was 0.0847, the AUC25 [5, 10] was 0.0726 and the AUC25 [5, 18] was 0.0706. For the same compound, the AUC25 [5, 19] was 0.046 and the AUC25 [5, 12] was 0.028.
